From patent US8796249B2, “TGR5 modulators and methods of use thereof” (Intercept Pharmaceuticals, Inc., priority 2008, dated 2014)
Values joined by “and” are separate entries in the source; they are usually repeats but may differ in a detail not shown here. Equal values may be shown once. Where a name gives a salt, the structure may show the parent alone.

Legend:
Water solubility = type: physicochemical; conditions: for Ws (water solubility): BA as protonated species, 0.1 M HCl, pH 1, hs = highly soluble, not evaluated; for solubility in biological fluids: ionized even at low pH, physiological conditions
Description: Solid compound (BA) was suspended in 5 ml of 0.1 M HCl. […] The flow rate was 150 μl/min. The mass spectrometry acquisition was performed in the multiple reaction monitoring mode using the ESI source in negative ionization. Water solubility was expressed as μmol/liter.
The water solubility was measured for the insoluble protonated species of carboxylated bile acids at a pH 1.

[1] = 1-Octanol/water partition coefficient (shake-flask); type: physicochemical; conditions: ionized species, pH 8
Description: Since the sulphate and sulphonated analogues are always ionised at all pH values the octanol/water partition coefficient was measured for all molecules in ionized form. 1-Octanol/water partition coefficient (log P) was evaluated using a conventional shake-flask procedure. […] The aqueous buffer was previously pre-saturated with 1-octanol, 5 ml of 1-octanol pre-saturated with water was then added and the samples were left to equilibrate for 2 weeks under continuous stirring at room temperature After centrifugation the two phases were carefully separated. BA concentration in the water phase was measured with HPLC-ESI ? MS/MS using C18 column (150 mm×2 mm i.d., 4 μm) and, as mobile phases, water containing 15 mM acetic acid pH 5 and acetonitrile. The flow rate was 150 μal/min and the column was maintained at 45° C. The mass spectrometry acquisition was performed in the multiple reaction monitoring mode using the ESI source in negative ionization.

hTGR5 [2] = target: T1, hTGR5 (Homo sapiens, UniProt Q8TDU6); assay: FRET-cAMP on TGR5 over-expressing HEH293 cells; type: cell-based
T1 sequence (Q8TDU6 1-330): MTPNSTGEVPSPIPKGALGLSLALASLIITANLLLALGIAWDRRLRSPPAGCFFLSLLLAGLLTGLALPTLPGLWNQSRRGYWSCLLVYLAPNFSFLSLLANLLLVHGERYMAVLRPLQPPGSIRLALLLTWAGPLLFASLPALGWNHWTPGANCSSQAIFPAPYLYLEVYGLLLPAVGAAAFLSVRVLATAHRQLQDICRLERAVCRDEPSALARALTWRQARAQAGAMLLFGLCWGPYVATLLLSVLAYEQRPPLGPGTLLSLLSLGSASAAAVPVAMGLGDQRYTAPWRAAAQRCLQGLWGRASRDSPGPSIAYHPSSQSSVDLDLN
Description: Assays were performed in triplicate or quadruplicate for each condition. EC50 values were determined by probit analysis. […] After subtracting the average value of the basal (vehicle-treated) condition, values were applied to EC50 and/or efficacy determinations. Calculation of average EC50 and comparison of the EC50 between different compounds were done after transformation to logarithms.

hTGR5 [3] = target: T1, hTGR5; assay: Transactivation assay (CRE-driven luciferase reporter) on hTGR5; type: cell-based
Description: CHO cells were plated in 96-well plates at a density of 3.5×10^4 cells/well, cultured for 24 h, and then transfected with 150 ng of human (h) TGR5 expression plasmid (pCMVSPORT6/hTGR5) and 100 ng of cAMP-responsive element (CRE)-driven luciferase reporter plasmid (pCRE-Luc) in each well using Lipofectamine 2000 reagent (Invitrogen) according to the manufacturer's instructions. After 6 h incubation, cells were washed once with phosphate-buffered saline (PBS) and medium was exchanged for DMEM containing 0.1% (w/v) bovine serum albumin (BSA). After incubation for another 18 h, cells were treated for 5 h with different concentrations of each compound in fresh DMEM containing 0.1% (w/v) BSA.
For β-galactosidase assays, 10 μl of cell lysate was mixed with 100 μl of Buffer Z [60 mM Na2HPO4, 10 mM KCl, 1 mM MgSO4, 50 mM β-mercaptoethanol and 0.75 mg/ml o-nitrophenyl-β-D-galactopyranoside (ONPG)] and incubated at 37° C. for 0.5-3 h. Reactions were stopped by adding 50 μl of Stop buffer (1M Na2CO3) and the optical density at 420 nm was determined.
EC50 values were determined by probit analysis.

HepG2 cell = HepG2 cell cytotoxicity, ATP decrease; type: cell-based; conditions: human
Description: (§1) Compounds of the invention were evaluated for cytotoxicity using standard methods known in the art. Specifically, cytotoxicity was evaluated using HEPG2 cells and monitoring ATP decrease and determining the EC50 value. […]

[4] = HepG2 cell cytotoxicity, ATP decrease; type: cell-based; conditions: human
Description: as §1

LXRα = target: T2, LXRα (Homo sapiens, UniProt Q13133); assay: LXR coactivator recruitment (alphascreen); type: biochemical; conditions: ref standard T0901317
T2 sequence (Q13133 1-447): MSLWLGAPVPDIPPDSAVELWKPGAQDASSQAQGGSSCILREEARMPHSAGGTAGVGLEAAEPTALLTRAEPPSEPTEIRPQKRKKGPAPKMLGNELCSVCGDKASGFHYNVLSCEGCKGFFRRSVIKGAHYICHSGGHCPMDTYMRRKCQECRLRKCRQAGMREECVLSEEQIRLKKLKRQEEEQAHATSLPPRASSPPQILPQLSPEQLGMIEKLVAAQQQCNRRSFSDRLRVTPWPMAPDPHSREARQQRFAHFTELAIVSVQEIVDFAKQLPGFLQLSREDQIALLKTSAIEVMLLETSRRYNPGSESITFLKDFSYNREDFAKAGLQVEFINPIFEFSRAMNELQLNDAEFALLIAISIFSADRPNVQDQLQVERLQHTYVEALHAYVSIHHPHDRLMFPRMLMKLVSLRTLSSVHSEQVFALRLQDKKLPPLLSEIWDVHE
Description: The selectivity of compounds of the invention was evaluated using assay methods known in the art. Specifically, the following assay methods were used: • FXR and LXR: Coactivator Recruitment (alphascreen); • TGR5: cAMP level on human intestinal cell line (NCI-H716); • PXR: Ligands Competition assay (Binding Assay) • CAR: Coactivator Recruitment (Lanthascreen)

VDR = target: T3, VDR (Homo sapiens, UniProt P11473); assay: NR selectivity assay VDR; conditions: unnamed ref standard 0.005 μM
T3 sequence (P11473 1-427): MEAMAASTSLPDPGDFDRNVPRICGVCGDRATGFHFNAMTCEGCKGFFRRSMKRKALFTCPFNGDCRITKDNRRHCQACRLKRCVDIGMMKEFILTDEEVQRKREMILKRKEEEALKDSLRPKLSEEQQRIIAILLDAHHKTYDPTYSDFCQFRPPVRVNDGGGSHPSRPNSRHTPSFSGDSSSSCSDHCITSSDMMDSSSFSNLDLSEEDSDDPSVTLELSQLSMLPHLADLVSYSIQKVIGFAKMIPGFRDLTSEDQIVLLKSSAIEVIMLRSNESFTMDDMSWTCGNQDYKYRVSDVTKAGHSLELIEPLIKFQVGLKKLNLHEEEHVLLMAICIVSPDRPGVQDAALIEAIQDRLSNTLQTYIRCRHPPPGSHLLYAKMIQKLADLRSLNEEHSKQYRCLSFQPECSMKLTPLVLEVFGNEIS

With `CC[C@H]1[C@@H](O)[C@@H]2[C@H](C[C@H](O)[C@]3(C)[C@@H]([C@H](C)CCCS(=O)(=O)[O-])CC[C@@H]23)[C@@]2(C)CC[C@@H](O)C[C@@H]12.[Na+]` [Compound 3A, 3α,7α,12α-trihydroxy-6α-ethyl-5β-cholan-24-sulfonate Sodium Salt] the “Ws (water solubility)” value (Water solubility) was “hs”, the “solubility in biological fluids” value (Water solubility) was “always soluble in all biological fluids” and the “LogPA- (1-octanol-water partition coefficient)” value ([1]; Sodium Salt) was 0.71 and 0.7. For the same compound, the EC50 (hTGR5 [2]) was 0.011 µM, the EC50 (hTGR5 [3]) was 0.6 µM and the EC50 (HepG2 cell) was over 1000 µM. The EC50 [4] was over 1000 µM, the “LXRα EC50” value (LXRα) was “No” and the “VDR EC50” value (VDR) was “No”.

For `CCC1C(O)C2C3CCC(C(C)CC(C)OS(=O)(=O)O)C3(C)CCC2C2(C)CCC(O)CC12` [Compound 2A, 3α,7α,23-trihydroxy-6α-ethyl-23(S)-methyl-24-nor-5β-cholan-23-sulfate Sodium Salt], the “Ws (water solubility)” value (Water solubility) was “hs”, the “solubility in biological fluids” value (Water solubility) was “always soluble in all biological fluids” and the “LogPA- (1-octanol-water partition coefficient)” value [1] was 2.3. For the same compound, the EC50 (hTGR5 [2]) was 0.025 µM, the EC50 (hTGR5 [3]) was 1.2 µM and the EC50 (HepG2 cell) was over 1000 µM. For the same compound, the EC50 [4] was over 1000 µM, the “LXRα EC50” value (LXRα) was “No” and the “VDR EC50” value (VDR) was “No”.
